This is an account of results in ChEMBL document CHEMBL1157741, “Synthesis and antituberculosis activity of novel mefloquine-isoxazole carboxylic esters as prodrugs” (Bioorg Med Chem Lett, 2010).

The subject of the test is Mycobacterium tuberculosis. Kind of test: Antimicrobial activity against Mycobacterium bovis BCG. The following applies: variant bovis BCG. It is filed as functional.

`CCOC(=O)c1cc(COc2cc(C(F)(F)F)nc3c(C(F)(F)F)cccc23)on1` displayed an MIC of less than 0.5 µM.

In turn, `O=C(O)c1cc(COc2cc(C(F)(F)F)nc3c(C(F)(F)F)cccc23)on1` had an MIC greater than 128 µM.

The term MIC denotes the smallest concentration in the dilution series that meets the test's criterion for growth inhibition.
